Experimental findings from US20260193268A1, “TRICYCLIC PI3Ka INHIBITOR, PREPARATION METHOD THEREFOR, AND PHARMACEUTICAL USE THEREOF” (WIGEN BIOMEDICINE TECHNOLOGY (SHANGHAI) CO., LTD., priority 2022, published 2026) are described below.

pIC50: −log10 of the molar value.

Assay [1] has as its system HCC1954 cells (with PI3Kα H1047R mutation). Description: In vitro inhibition of HCC1954 cell proliferation (CellTiter-Lumi). The format is cell-based. The settings on record: Homo sapiens, HCC1954, 144 h, HCC1954 cells, 144 h, CellTiter-Lumi; class symbols; read-out: Inhibitory activity against HCC1954 cells (IC50), class symbols. As to the method:
Assay for In Vitro Inhibition of HCC1954 Cell Proliferation by Compounds of the Present Disclosure
The growth of the cells was evaluated, and the IC50 for the inhibition of cell growth by the compounds was calculated.

The subject of assay [2] is MCF-7 cells (with PI3Kα E545K mutation). In words: In vitro inhibition of MCF-7 cell proliferation (CellTiter-Lumi). The format is cell-based. As to conditions: Homo sapiens, MCF7, 144 h, class symbols, read-out: Inhibitory activity against MCF-7 cells (IC50), class symbols. The essentials: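 MCF-7 (PI3Kα E545K) seeded at 2000 cells/well; serially diluted compounds added next day and exposed for 144 h. Cellular ATP read by CellTiter-Lumi luminescence; IC50 for growth inhibition calculated.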

By pIC50 is commonly meant −log10 of the IC50, conventionally taken in molar units.

On to `N#CC(=CC1CCCN1)C(=O)Nc1ccc(N2CC(N3CCN(c4ccc5c(c4)-c4nc(N6C(=O)OC[C@H]6C(F)F)cn4CCO5)CC3)C2)cc1` (stereo partly drawn) [Compound 214], for which the negative logarithm of the IC50 (pIC50) in assay [1] and in assay [2] was above 7.30 throughout.
As for `CNC(C)(C)C=C(C#N)C(=O)Nc1ccc(N2CCC(N3CCN(c4ccc5c(c4)-c4nc(N6C(=O)OCC6C(F)F)cn4CCO5)CC3)C2)cc1` (stereo not drawn) [Compound 215], the negative logarithm of the IC50 (pIC50) in assay [1] and in assay [2] was above 7.30 throughout.
Regarding `C=CC(=O)Nc1ccc(N2CC(N3CCN(c4ccc5c(c4)-c4nc(N6C(=O)OC[C@H]6C(F)F)cn4CCO5)CC3)C2)nc1C` [Compound 216], the negative logarithm of the IC50 (pIC50) in assay [1] and in assay [2] was above 7.30 each time.
With `C=CC(=O)Nc1cnc(N2CC(N3CCN(c4ccc5c(c4)-c4nc(N6C(=O)OC[C@H]6C(F)F)cn4CCO5)CC3)C2)cc1C` [Compound 217], the pIC50 in assay [1] and in assay [2] was above 7.30 each time.
Regarding `COCCNC(C)(C)C=C(C#N)C(=O)Nc1ccc(N2CC(N3CCN(c4ccc5c(c4)-c4nc(N6C(=O)OC[C@H]6C(F)F)cn4CCO5)CC3)C2)cc1` [Compound 218], the pIC50 in assay [1] and in assay [2] was above 7.30 each time.
As to `CNC(C)(C)C=C(C#N)C(=O)Nc1cc(N2CC(N3CCN(c4ccc5c(c4)-c4nc(N6C(=O)OC[C@H]6C(F)F)cn4CCO5)CC3)C2)n(C)n1` [Compound 219], the negative logarithm of the IC50 (pIC50) in assay [1] and in assay [2] was above 7.30 throughout.
`CN(C1COC1)C(C)(C)C=C(C#N)C(=O)Nc1ccc(N2CC(N3CCN(c4ccc5c(c4)-c4nc(N6C(=O)OC[C@H]6C(F)F)cn4CCO5)CC3)C2)c(F)c1` [Compound 220]: the negative logarithm of the IC50 (pIC50) in assay [1] and in assay [2] was above 7.30 in each case.
Turning to `CC(C)(C=C(C#N)C(=O)Nc1ccc(N2CC(N3CCN(c4ccc5c(c4)-c4nc(N6C(=O)OC[C@H]6C(F)F)cn4CCO5)CC3)C2)c(F)c1)NC1COC1` [Compound 221], the pIC50 in assay [1] and in assay [2] was above 7.30 each time.
For `CC(C)(C=C(C#N)C(=O)Nc1ccc(N2CC(N3CCN(c4ccc5c(c4)-c4nc(N6C(=O)OC[C@H]6C(F)F)cn4CCO5)CC3)C2)c(F)c1)N1CCOCC1` [Compound 222], the pIC50 in assay [1] and in assay [2] was above 7.30 each time.
With `CC(C)(C)C=C(C#N)C(=O)Nc1ccc(N2CC(N3CCN(c4ccc5c(c4)-c4nc(N6C(=O)OC[C@H]6C(F)F)cn4CCO5)CC3)C2)c(F)c1` [Compound 223], the negative logarithm of the IC50 (pIC50) in assay [1] and in assay [2] was above 7.30 each time.
Take `CC(C)(N)C=C(C#N)C(=O)Nc1ccc(N2CC(N3CCN(c4ccc5c(c4)-c4nc(N6C(=O)OC[C@H]6C(F)F)cn4CCO5)CC3)C2)c(F)c1` [Compound 224]: the negative logarithm of the IC50 (pIC50) in assay [1] and in assay [2] was above 7.30 each time.
As to `CNC(C)(C)C=C(C#N)C(=O)Nc1ccc(N2CC(N3CCN(c4ccc5c(c4)-c4nc(N6C(=O)OC[C@H]6C(F)F)cn4CCO5)CC3)C2)c(F)c1` [Compound 225], the negative-log IC50 (pIC50) in assay [1] and in assay [2] was above 7.30 in each case.
Turning to `CC(C)C=C(C#N)C(=O)Nc1ccc(N2CC(N3CCN(c4ccc5c(c4)-c4nc(N6C(=O)OC[C@H]6C(F)F)cn4CCO5)CC3)C2)c(F)c1` [Compound 226], the pIC50 in assay [1] and in assay [2] was above 7.30 in each case.
`N#CC(=CC1CC1)C(=O)Nc1ccc(N2CC(N3CCN(c4ccc5c(c4)-c4nc(N6C(=O)OC[C@H]6C(F)F)cn4CCO5)CC3)C2)c(F)c1` [Compound 227]: the negative-log IC50 (pIC50) in assay [1] and in assay [2] was above 7.30 throughout.
In the case of `CC(C)(C=C(C#N)C(=O)Nc1ccc(N2CC(N3CCN(c4ccc5c(c4)-c4nc(N6C(=O)OC[C@H]6C(F)F)cn4CCO5)CC3)C2)c(F)c1)N1CC2(COC2)C1` [Compound 228], the negative-log IC50 (pIC50) in assay [1] and in assay [2] was above 7.30 throughout.
For the compound `CC(C)(C=C(C#N)C(=O)Nc1ccc(N2CC(N3CCN(c4ccc5c(c4)-c4nc(N6C(=O)OC[C@H]6C(F)F)cn4CCO5)CC3)C2)c(F)c1)N1CCC1` [Compound 229], the negative logarithm of the IC50 (pIC50) in assay [1] and in assay [2] was above 7.30 each time.
Consider `CC(C)(O)C=C(C#N)C(=O)Nc1ccc(N2CC(N3CCN(c4ccc5c(c4)-c4nc(N6C(=O)OC[C@H]6C(F)F)cn4CCO5)CC3)C2)c(F)c1` [Compound 230], for which the pIC50 in assay [1] and in assay [2] was above 7.30 each time.
`COC(C)(C)C=C(C#N)C(=O)Nc1ccc(N2CC(N3CCN(c4ccc5c(c4)-c4nc(N6C(=O)OC[C@H]6C(F)F)cn4CCO5)CC3)C2)c(F)c1` [Compound 231]: the pIC50 in assay [1] and in assay [2] was above 7.30 in each case.
Consider `COCCNC(C)(C)C=C(C#N)C(=O)Nc1ccc(N2CC(N3CCN(c4ccc5c(c4)-c4nc(N6C(=O)OC[C@H]6C(F)F)cn4CCO5)CC3)C2)c(F)c1` [Compound 232], for which the pIC50 in assay [1] and in assay [2] was above 7.30 throughout.
As for `CC1(C=C(C#N)C(=O)Nc2ccc(N3CC(N4CCN(c5ccc6c(c5)-c5nc(N7C(=O)OC[C@H]7C(F)F)cn5CCO6)CC4)C3)c(F)c2)COC1` [Compound 233], the negative-log IC50 (pIC50) in assay [1] and in assay [2] was above 7.30 in each case.
Turning to `N#CC(=CC1CCCN1)C(=O)Nc1ccc(N2CC(N3CCN(c4ccc5c(c4)-c4nc(N6C(=O)OC[C@H]6C(F)F)cn4CCO5)CC3)C2)c(F)c1` (stereo partly drawn) [Compound 234], the negative-log IC50 (pIC50) in assay [1] and in assay [2] was above 7.30 in each case.
Consider `N#CC(=CC1(N)CC1)C(=O)Nc1ccc(N2CC(N3CCN(c4ccc5c(c4)-c4nc(N6C(=O)OC[C@H]6C(F)F)cn4CCO5)CC3)C2)c(F)c1` [Compound 235], for which the pIC50 in assay [1] and in assay [2] was above 7.30 each time.
For `CC=C(C#N)C(=O)Nc1ccc(N2CC(N3CCN(c4ccc5c(c4)-c4nc(N6C(=O)OC[C@H]6C(F)F)cn4CCO5)CC3)C2)c(F)c1` [Compound 236], the pIC50 in assay [1] and in assay [2] was above 7.30 each time.
For the compound `CNC1(C=C(C#N)C(=O)Nc2ccc(N3CC(N4CCN(c5ccc6c(c5)-c5nc(N7C(=O)OC[C@H]7C(F)F)cn5CCO6)CC4)C3)c(F)c2)CC1` [Compound 237], the negative-log IC50 (pIC50) in assay [1] and in assay [2] was above 7.30 in each case.
For the compound `CN(C1COC1)C(C)(C)C=C(C#N)C(=O)Nc1ccc(N2CC(N3CCN(c4ccc5c(c4)-c4nc(N6C(=O)OC[C@H]6C(F)F)cn4CCO5)CC3)C2)nc1` [Compound 238], the negative-log IC50 (pIC50) in assay [1] and in assay [2] was above 7.30 throughout.
As to `CC(C)(C=C(C#N)C(=O)Nc1ccc(N2CC(N3CCN(c4ccc5c(c4)-c4nc(N6C(=O)OC[C@H]6C(F)F)cn4CCO5)CC3)C2)nc1)NC1COC1` [Compound 239], the negative-log IC50 (pIC50) in assay [1] and in assay [2] was above 7.30 each time.
Turning to `CC(C)(C=C(C#N)C(=O)Nc1ccc(N2CC(N3CCN(c4ccc5c(c4)-c4nc(N6C(=O)OC[C@H]6C(F)F)cn4CCO5)CC3)C2)nc1)N1CCOCC1` [Compound 240], the pIC50 in assay [1] and in assay [2] was above 7.30 throughout.
For the compound `CC(C)(C)C=C(C#N)C(=O)Nc1ccc(N2CC(N3CCN(c4ccc5c(c4)-c4nc(N6C(=O)OC[C@H]6C(F)F)cn4CCO5)CC3)C2)nc1` [Compound 241], the pIC50 in assay [1] and in assay [2] was above 7.30 throughout.
As to `CC(C)(N)C=C(C#N)C(=O)Nc1ccc(N2CC(N3CCN(c4ccc5c(c4)-c4nc(N6C(=O)OC[C@H]6C(F)F)cn4CCO5)CC3)C2)nc1` [Compound 242], the negative-log IC50 (pIC50) in assay [1] and in assay [2] was above 7.30 in each case.
Turning to `CNC(C)(C)C=C(C#N)C(=O)Nc1ccc(N2CC(N3CCN(c4ccc5c(c4)-c4nc(N6C(=O)OC[C@H]6C(F)F)cn4CCO5)CC3)C2)nc1` [Compound 243], the pIC50 in assay [1] and in assay [2] was above 7.30 each time.
With `CC(C)C=C(C#N)C(=O)Nc1ccc(N2CC(N3CCN(c4ccc5c(c4)-c4nc(N6C(=O)OC[C@H]6C(F)F)cn4CCO5)CC3)C2)nc1` [Compound 244], the pIC50 in assay [1] and in assay [2] was above 7.30 each time.
In the case of `N#CC(=CC1CC1)C(=O)Nc1ccc(N2CC(N3CCN(c4ccc5c(c4)-c4nc(N6C(=O)OC[C@H]6C(F)F)cn4CCO5)CC3)C2)nc1` [Compound 245], the negative logarithm of the IC50 (pIC50) in assay [1] and in assay [2] was above 7.30 each time.
For `CC(C)(C=C(C#N)C(=O)Nc1ccc(N2CC(N3CCN(c4ccc5c(c4)-c4nc(N6C(=O)OC[C@H]6C(F)F)cn4CCO5)CC3)C2)nc1)N1CC2(COC2)C1` [Compound 246], the pIC50 in assay [1] and in assay [2] was above 7.30 each time.
For the compound `CC(C)(C=C(C#N)C(=O)Nc1ccc(N2CC(N3CCN(c4ccc5c(c4)-c4nc(N6C(=O)OC[C@H]6C(F)F)cn4CCO5)CC3)C2)nc1)N1CCC1` [Compound 247], the pIC50 in assay [1] and in assay [2] was above 7.30 each time.
On to `CC(C)(O)C=C(C#N)C(=O)Nc1ccc(N2CC(N3CCN(c4ccc5c(c4)-c4nc(N6C(=O)OC[C@H]6C(F)F)cn4CCO5)CC3)C2)nc1` [Compound 248], for which the negative-log IC50 (pIC50) in assay [1] and in assay [2] was above 7.30 throughout.
As to `COC(C)(C)C=C(C#N)C(=O)Nc1ccc(N2CC(N3CCN(c4ccc5c(c4)-c4nc(N6C(=O)OC[C@H]6C(F)F)cn4CCO5)CC3)C2)nc1` [Compound 249], the negative-log IC50 (pIC50) in assay [1] and in assay [2] was above 7.30 throughout.
In the case of `COCCNC(C)(C)C=C(C#N)C(=O)Nc1ccc(N2CC(N3CCN(c4ccc5c(c4)-c4nc(N6C(=O)OC[C@H]6C(F)F)cn4CCO5)CC3)C2)nc1` [Compound 250], the negative-log IC50 (pIC50) in assay [1] and in assay [2] was above 7.30 in each case.
Consider `CC1(C=C(C#N)C(=O)Nc2ccc(N3CC(N4CCN(c5ccc6c(c5)-c5nc(N7C(=O)OC[C@H]7C(F)F)cn5CCO6)CC4)C3)nc2)COC1` [Compound 251], for which the negative-log IC50 (pIC50) in assay [1] and in assay [2] was above 7.30 in each case.
For the compound `N#CC(=CC1CCCN1)C(=O)Nc1ccc(N2CC(N3CCN(c4ccc5c(c4)-c4nc(N6C(=O)OC[C@H]6C(F)F)cn4CCO5)CC3)C2)nc1` (stereo partly drawn) [Compound 252], the pIC50 in assay [1] and in assay [2] was above 7.30 in each case.
